Like-named read-outs stand apart in the source and are kept apart here.
Legend:
PxutCSP19 [1] = molecular target: T1, PxutCSP19 (Papilio xuthus, UniProt A0A194QJK0); test: Binding of fluorescent probe 1-NPN to wildtype PxutCSP19 (titration, Scatchard)
Method: (§1) In order to investigate the ligand-binding properties of PxutCSP19 to host odorants and insecticides, we first asked whether this fluorescent probe 1-NPN was available for the binding of PxutCSP19. To calculate the binding ability of PxutCSP19 to 1-NPN, we titrated different final concentrations of 1-NPN (2~20 μM) into Tris-HCl buffer (pH 7.4) containing 2 μM PxutCSP19. The binding constant (K1-NPN) of 1-NPN to this protein was determined with GraphPad Prism 7 (GraphPad Software Inc., San Diego, CA), as previously described. The solution was excited at 337 nm and the emission peak was monitored at 414 nm on an RF-5301PC spectrofluorometer (Shimadzu, Kyoto, Japan) using a quartz micro-cuvette filled with a 100 μL mixture, with 5 nm excitation and emission slit widths. If the host odorant molecules could displace more than 40% of the 1-NPN fluorescence from the binding cavity of PxutCSP19, the compounds would be continuously added up to 36 μM with triplicates. For the binding experiments, each compound would be added into the PxutCSP19/1-NPN (each 2 μM) complex with final concentrations of 2~20 μM. […]

PxutCSP19-T1 [2] = molecular target: T2, PxutCSP19-T1 (Papilio xuthus, UniProt A0A194QJK0); test: Binding of fluorescent probe 1-NPN to PxutCSP19-T1 (titration, Scatchard); conditions: read-out: K1-NPN (binding constant of 1-NPN)
T2 sequence (A0A194QJK0 35-142): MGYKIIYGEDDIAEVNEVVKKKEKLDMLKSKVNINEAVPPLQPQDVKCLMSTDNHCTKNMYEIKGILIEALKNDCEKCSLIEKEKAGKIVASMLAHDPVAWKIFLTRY
Method: as §1

PxutCSP19-T2 [3] = molecular target: T3, PxutCSP19-T2 (Papilio xuthus, UniProt A0A194QJK0); test: Binding of fluorescent probe 1-NPN to PxutCSP19-T2 (titration, Scatchard); conditions: read-out: K1-NPN (binding constant of 1-NPN)
T3 sequence (A0A194QJK0 53-142): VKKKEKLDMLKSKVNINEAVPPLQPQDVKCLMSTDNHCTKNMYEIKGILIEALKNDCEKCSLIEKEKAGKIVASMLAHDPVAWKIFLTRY
Method: as §1

PxutCSP19 [4] = molecular target: T1, PxutCSP19; test: Fluorescence competitive binding assay (1-NPN displacement), wildtype PxutCSP19; conditions: for inhibition at 20 µM: read-out: F.D. (fluorescent displacement rate of ligands), Wildtype (WT), ligand at 20 μM, PxutCSP19/1-NPN each 2 μM, NB = no binding
Description: The open reading frame (ORF) of PxutCSP19 was cloned with a PrimeSTAR®® Max DNA Polymerase (TaKaRa, Liaoning, Dalian, China) and gene-specific primers containing restriction enzyme sites (BamH I and Xho I) (Table S2). The PCR products were detected on a 1.5% (w/v) agarose gel, and the expected bands were cut and purified using a HiPure Gel Pure DNA Mini Kit (Magen, Guangzhou, China). Next, BamH I and Xho I were used to digest the PxutCSP19 products and pET-30a (+) plasmids, followed by purification. A T4 DNA ligase (Thermo Fisher Scientific, Waltham, MA, USA) was applied to the construction of the recombinant plasmids pET-30a (+)/PxutCSP19. After being confirmed by sequencing, the plasmids were transformed into BL21 (DE3) competent cells so as to express recombinant proteins with 1.0 mM isopropyl β-D-thiogalactoside (IPTG). Because this recombinant protein pET-30a (+)/PxutCSP19 was insoluble, we applied a protein denaturation–renaturation approach to purify PxutCSP19 with an affinity chromatography technique, in which the denaturation buffer included 8 M urea and 1.0 mM β-mercaptoethanol.
(§2) In order to investigate the ligand-binding properties of PxutCSP19 to host odorants and insecticides, we first asked whether this fluorescent probe 1-NPN was available for the binding of PxutCSP19. To calculate the binding ability of PxutCSP19 to 1-NPN, we titrated different final concentrations of 1-NPN (2~20 μM) into Tris-HCl buffer (pH 7.4) containing 2 μM PxutCSP19. The binding constant (K1-NPN) of 1-NPN to this protein was determined with GraphPad Prism 7 (GraphPad Software Inc., San Diego, CA), as previously described. The solution was excited at 337 nm and the emission peak was monitored at 414 nm on an RF-5301PC spectrofluorometer (Shimadzu, Kyoto, Japan) using a quartz micro-cuvette filled with a 100 μL mixture, with 5 nm excitation and emission slit widths. If the host odorant molecules could displace more than 40% of the 1-NPN fluorescence from the binding cavity of PxutCSP19, the compounds would be continuously added up to 36 μM with triplicates. For the binding experiments, each compound would be added into the PxutCSP19/1-NPN (each 2 μM) complex with final concentrations of 2~20 μM. […] We used the Ki values to compare the binding affinities of various ligands with the equation: Ki = [IC50]/(1 + [1-NPN]/K1-NPN), where IC50 represents the ligand concentrations displacing one half of the initial protein/1-NPN fluorescence, and [1-NPN] is the free concentration of 1-NPN at 2 μM.

PxutCSP19-T1 [5] = molecular target: T2, PxutCSP19-T1; test: Fluorescence competitive binding assay (1-NPN displacement), truncated PxutCSP19-T1; conditions: for inhibition at 20 µM: T1 (17 N-terminal residues truncated), ligand at 20 μM, read-out: F.D. (fluorescent displacement rate of ligands); for Ki: Ki = [IC50]/(1 + [1-NPN]/K1-NPN)
Method: as §2
(§3) To determine the effects of an extended N-terminal sequence (approximately 35 amino acids) on the binding specificity of PxutCSP19 to ligands, we next constructed two truncated PxutCSP19s. Firstly, the front 17 amino acids (i.e., EITIGGIERTMSPGVKS, defined as PxutCSP19-T1) and the front 35 amino acids (i.e., […], defined as PxutCSP19-T2) of the N-terminal region without the signal peptide were truncated, respectively. Secondly, the two truncated ORFs (PxutCSP19-T1: 360 bp and PxutCSP19-T2: 306 bp) of PxutCSP19s were separately amplified using RT–PCR with gene-specific primers (Table S2). After that, the amplified products were sub-cloned into pET-30a (+), i.e., pET-30a (+)/PxutCSP19-T1 and pET-30a (+)/PxutCSP19-T2. Using the above-described methods for the expression and purification of proteins, we obtained two truncated proteins. Furthermore, the binding characteristics of the truncated PxutCSP19s to ligands with high affinities were investigated, representing six host odorants and eight insecticides.

PxutCSP19-T2 [6] = molecular target: T3, PxutCSP19-T2; test: Fluorescence competitive binding assay (1-NPN displacement), truncated PxutCSP19-T2; conditions: for inhibition at 20 µM: T2 (35 N-terminal residues truncated), ligand at 20 μM, read-out: F.D. (fluorescent displacement rate of ligands); for Ki: Ki = [IC50]/(1 + [1-NPN]/K1-NPN)
Method: as §2, §3

T1 sequence (A0A194QJK0 entry or part of it): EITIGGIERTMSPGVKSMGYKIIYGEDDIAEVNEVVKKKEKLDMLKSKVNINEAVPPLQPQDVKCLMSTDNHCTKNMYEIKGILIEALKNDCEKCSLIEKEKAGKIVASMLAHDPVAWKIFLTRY

Row | Structure (SMILES) | Kd (PxutCSP19 [1]) | Kd (PxutCSP19-T1 [2]) | Kd (PxutCSP19-T2 [3]) | IC50 (PxutCSP19 [4]) | inhibition at 20 µM (PxutCSP19 [4]) | inhibition at 20 µM (PxutCSP19-T1 [5]) | Ki (PxutCSP19-T1 [5]; T1) | IC50 (PxutCSP19-T1 [5]; T1, read-out: IC50) | inhibition at 20 µM (PxutCSP19-T2 [6]) | Ki (PxutCSP19-T2 [6]; T2) | IC50 (PxutCSP19-T2 [6]; T2, read-out: IC50) | IC50 (PxutCSP19-T1 [5]) | IC50 (PxutCSP19-T2 [6]) | Ki (PxutCSP19 [4]; Wildtype (WT), Ki = [IC50]/(1 + [1-NPN]/K1-NPN)) | IC50 (PxutCSP19 [4]; Wildtype (WT), ligand up to 20 μM or 36 μM, displacing half of protein/1-NPN fluorescence)
1 | c1ccc(Nc2cccc3ccccc23)cc1 [1-NPN, N-phenyl-1-naphthylamine] | 2.65 ± 0.35 µM | 2.12 ± 0.47 µM | 2.5 ± 0.25 µM | – | – | – | – | – | – | – | – | – | – | – | –
2 | CCCCCCCCO [1-Octanol] | – | – | – | 34.5 ± 1.11 µM | > 40% | 43.5% | 21.7 ± 0.44 µM | 34.5 ± 0.7 µM | 42.7% | 22.8 ± 0.42 µM | 34.6 ± 0.64 µM | – | – | – | –
3 | CCOCn1c(-c2ccc(Cl)cc2)c(C#N)c(Br)c1C(F)(F)F [Chlorfenapyr] | – | – | – | 10.71 ± 0.09 µM | 58.7% | 63.8% | 6.47 ± 0.27 µM | 10.3 ± 0.43 µM | 64.3% | 6.68 ± 0.45 µM | 10.1 ± 0.68 µM | – | – | – | –
4 | O=C(NC(=O)c1c(F)cccc1F)Nc1cc(Cl)c(Oc2ncc(C(F)(F)F)cc2Cl)c(Cl)c1 [Chlorfluazuron] | – | – | – | 11.9 ± 1.04 µM | 60.5% | 54.7% | 7.99 ± 0.94 µM | 12.7 ± 1.49 µM | 57% | 8.88 ± 0.4 µM | 13.5 ± 0.6 µM | – | – | – | –
5 | CCOP(=S)(OCC)Oc1nc(Cl)c(Cl)cc1Cl [Chlorpyrifos] | – | – | – | 5.52 ± 0.16 µM | 75.1% | 70.3% | – | – | 73.2% | – | – | 5.87 ± 0.47 µM | 5.32 ± 0.4 µM | – | –
6 | O=C(NC(=O)c1c(F)cccc1F)Nc1cc(Cl)c(OC(F)(F)C(F)F)c(Cl)c1 [Hexaflumuron] | – | – | – | 12.1 ± 2.36 µM | 59.5% | 56.5% | 7.78 ± 0.46 µM | 12.4 ± 0.73 µM | 59.6% | 8.02 ± 1.03 µM | 12.2 ± 1.56 µM | – | – | – | –
7 | COC(=O)N(C(=O)N1CO[C@@]2(C(=O)OC)Cc3cc(Cl)ccc3C2=N1)c1ccc(OC(F)(F)F)cc1 [Indoxacarb] | – | – | – | 10.8 ± 0.65 µM | 61.5% | 59.1% | 7.08 ± 0.26 µM | 11.3 ± 0.41 µM | 62.5% | 7.98 ± 0.37 µM | 12.1 ± 0.56 µM | – | – | – | –
8 | C=CC(C)(O)CCC=C(C)C (centres unmarked) [Linalool] | – | – | – | 33.8 ± 0.84 µM | > 40% | 39.8% | 20.8 ± 0.85 µM | 33.1 ± 1.34 µM | 40.3% | 22.8 ± 0.59 µM | 34.6 ± 0.9 µM | – | – | – | –
9 | CN(C)C(CSS(=O)(=O)O)CSS(=O)(=O)O [Monosultap] | – | – | – | – | 53.6% | 54.8% | 11.1 ± 0.46 µM | 17.6 ± 0.73 µM | 61% | 11.8 ± 0.67 µM | 17.9 ± 1.02 µM | – | – | 11.1 ± 0.66 µM | 16.8 ± 1.01 µM
10 | CC(C)=CCC/C(C)=C\CO [Nerol] | – | – | – | 34 ± 1.46 µM | > 40% | 39.4% | 21.84 ± 0.02 µM | 34.75 ± 0.03 µM | 40.8% | 22.2 ± 0.56 µM | 33.8 ± 0.85 µM | – | – | – | –
11 | C=C/C(C)=C/CC=C(C)C [Ocimene] | – | – | – | 31.3 ± 1.73 µM | > 40% | 43.1% | 19.9 ± 1.17 µM | 31.7 ± 1.86 µM | 35.2% | 21.6 ± 0.72 µM | 32.8 ± 1.09 µM | – | – | – | –
12 | CCOP(=S)(OCC)O/N=C(\C#N)c1ccccc1 [Phoxim] | – | – | – | 2.63 ± 0.12 µM | 87.3% | 83.1% | – | – | 84.8% | – | – | 2.66 ± 0.2 µM | 3.16 ± 0.35 µM | – | –
13 | C=C(C)[C@H]1Cc2c(ccc3c2O[C@@H]2COc4cc(OC)c(OC)cc4[C@@H]2C3=O)O1 [Rotenone] | – | – | – | 9.15 ± 0.76 µM | 67.6% | 61.8% | – | – | 64.4% | – | – | 11.12 ± 0.04 µM | 11.3 ± 0.58 µM | – | –
14 | COc1cc(C=O)cc(OC)c1O [Syringaldehyde] | – | – | – | 31 ± 0.97 µM | > 40% | 42.7% | 17.7 ± 0.84 µM | 28.1 ± 1.33 µM | 42.2% | 18.8 ± 0.74 µM | 28.6 ± 1.12 µM | – | – | – | –
15 | CC1=CCC(=C(C)C)CC1 [Terpinolene] | – | – | – | 34.1 ± 1.31 µM | > 40% | 40.1% | 21.14 ± 0.1 µM | 33.64 ± 0.16 µM | 38.5% | 20.8 ± 1.1 µM | 31.6 ± 1.67 µM | – | – | – | –
